As a reminder, the IC50 is the concentration at which inhibition is half-maximal. By Ki is commonly meant the dissociation constant of the complex between target and ligand, obtained from inhibition or displacement. Read a high Ki as lower affinity.

Data on 19 compounds can be found in patent US20120165319A1, “INHIBITORS OF INTERLEUKIN-1 BETA CONVERTING ENZYME” (VERTEX PHARMACEUTICALS INCORPORATED, priority 1995, published 2012).

In experiment [1] the test system is IL-1β, human whole blood. Briefly: Whole blood assay for IL-1β production. The experiment is classed as cell-based. Particulars: read-out: Whole human blood IC50. As to the method:
The whole blood assay is a simple method for measuring the production of IL-1b (or other cytokines) and the activity of potential inhibitors. The complexity of this assay system, with its full complement of lymphoid and inflammatory cell types, spectrum of plasma proteins and red blood cells is an ideal in vitro representation of human in vivo physiologic conditions.
Pyrogen-free syringes (˜30 cc) Pyrogen-free sterile vacuum tubes containing lyophilized Na2EDTA (4.5 mg/10 ml tube) Human whole blood sample (˜30-50 cc) 1.5 ml eppendorf tubes Test compound stock solutions (˜25 mM in DMSO or other solvent) Endotoxin-free sodium chloride solution (0.9%) and HBSS Lipopolysaccharide (Sigma; Cat. # L-3012) stock solution at 1 mg/ml in HBSS
IL-1β ELISA Kit (R & D Systems; Cat # DLB50)
TNFα ELISA Kit (R & D Systems; Cat # DTA50)
Whole Blood Assay Experimental Procedure:
Set incubator or water bath at 30° C. Aliquot 0.25 ml of blood into 1.5 ml eppendorf tubes. Note: be sure to invert the whole blood sample tubes after every two aliquots. Differences in replicates may result if the cells sediment and are not uniformly suspended. Use of a positive displacement pipette will also minimize differences between replicate aliquots.
Prepare drug dilutions in sterile pyrogen-free saline by serial dilution. A dilution series which brackets the apparent Ki for a test compound determined in an ICE inhibition assay is generally used for the primary compound screen.
Add 25 μl test compound dilution or vehicle control and gently mix the sample. Then add 5.0 μl LPS solution (250 ng/ml stocked prepared fresh: 5.0 ng/ml final concentration LPS), and mix again. Incubate the tubes at 30° C. in a water bath for 16-18 hr with occasional mixing. Alternatively, the tubes can be placed in a rotator set at 4 rpm for the same incubation period. This assay should be set up in duplicate or triplicate with the following controls: negative control—no LPS; positive control—no test inhibitor; vehicle control—the highest concentration of DMSO or compound solvent used in the experiment. Additional saline is added to all control tubes to normalize volumes for both control and experimental whole blood test samples
After the incubation period, whole blood samples are centrifuged for 10 minutes at ˜2000 rpm in the microfuge, plasma is transferred to a fresh microfuge tube and centrifuged at 1000×g to pellet residual platelets if necessary. Plasma samples may be stored frozen at −70° C. prior to assay for cytokine levels by ELISA.
We have used R & D Systems (614 McKinley Place N.E. Minneapolis, Minn. 55413) Quantikine kits for measurement of IL-1β and TNF-α. The assays are performed according to the manufacturer's directions.
We have observed IL-1β levels of ˜1-5 ng/ml in positive controls among a range of individuals. A 1:200 dilution of plasma for all samples has been sufficient in our experiments for ELISA results to fall on the linear range of the ELISA standard curves. It may be necessary to optimize standard dilutions if you observe differences in the whole blood assay. Nerad, J. L. et al., J. Leukocyte Biol., 52, pp. 687-692 (1992).

Experiment [2] concerns the target T1, ICE (Homo sapiens, UniProt P29466).
T1 sequence (P29466 120-297 limits assumed): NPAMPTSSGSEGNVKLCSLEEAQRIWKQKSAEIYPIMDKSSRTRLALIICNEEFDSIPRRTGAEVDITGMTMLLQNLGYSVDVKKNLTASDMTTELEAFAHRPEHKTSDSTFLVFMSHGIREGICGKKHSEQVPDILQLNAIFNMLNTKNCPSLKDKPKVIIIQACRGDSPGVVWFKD
T1 sequence (P29466 317-404 limits assumed): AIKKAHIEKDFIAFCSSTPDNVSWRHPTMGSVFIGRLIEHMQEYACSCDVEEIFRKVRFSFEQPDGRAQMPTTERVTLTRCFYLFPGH
Briefly: Enzyme assay with UV-visible substrate (visible ICE assay, Succinyl-Tyr-Val-Ala-Asp-pNitroanilide). It counts as biochemical. The method in brief:
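Colorimetric caspase-1 activity: 15 min enzyme-inhibitor preincubation (RT), then Suc-Tyr-Val-Ala-Asp-pNA; 405-603 nm kinetics, 20 min, 37° C. Ki from rate fitting.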

Setting [3] is: Homo sapiens, * = values obtained upon reassay.

Where two headings read alike, the source gives them in different places.

`CCOC1OC(=O)C[C@@H]1NC(=O)CN1C(=O)[C@@H](NC(=O)c2cc(C)c(O)c(C)c2)CN(C(=O)CO)c2ccccc21` (mixture of isomers) [Compound 692b, (3S)-2-Oxo-3-(3,5-dimethyl-4-hydroxybenzoyl)amino-5-hydroxyacetyl-N-[(2RS,3S)-ethoxy-5-oxo-tetrahydrofuran-3-yl]-2,3,4,5-tetrahydro-1H-1,5-benzodiazepine-1-acetamide]: the IC50 in experiment [1] (Table 17) came to 1800 nM.

Turning to `CC(=O)N(C)c1ccc(C(=O)N[C@H]2CCC(=O)N3CCC[C@@H](C(=O)N[C@H](C=O)CC(=O)O)N3C2=O)cc1` [Compound 448], the affinity in experiment [2] (Table 5), expressed as Ki, was 130 nM. Also, in experiment [1] (setting [3]), the IC50 is 4000 nM.

Turning to `COCC(=O)N1C[C@H](NC(=O)c2cc(C)c(O)c(C)c2)C(=O)N(CC(=O)N[C@H]2CC(=O)OC2OCc2ccccc2)c2ccccc21` (mixture of isomers) [Compound 688b, (3S)-2-Oxo-3-(3,5-dimethyl-4-hydroxybenzoyl)amino-5-methoxyacetyl-N-[(2RS,3S)-benzyloxy-5-oxo-tetrahydrofuran-3-yl]-2,3,4,5-tetrahydro-1H-1,5-benzodiazepine-1-acetamide], the IC50 in experiment [1] (Homo sapiens, Table 17) worked out at 1300 nM.

Turning to `Cc1cc(C(=O)N[C@H]2CN(C(=O)C(C)C)c3ccccc3N(CC(=O)N[C@H](C=O)CC(=O)O)C2=O)cc(C)c1O` [Compound 725], the inhibition constant (Ki) in experiment [2] (Table 27) worked out at 3.7 nM. Also, the 50% inhibitory concentration (IC50) in experiment [1] (Homo sapiens, Table 27) was found to be 3000 nM.

In experiment [2] (Table 27), `COC(=O)N1C[C@H](NC(=O)c2cc(C)c(O)c(C)c2)C(=O)N(CC(=O)N[C@H](C=O)CC(=O)O)c2ccccc21` [Compound 723] had an inhibition constant (Ki) of 2.3 nM. Further, the 50% inhibitory concentration (IC50) in experiment [1] (Homo sapiens, Table 27) was determined as 2000 nM.

In the case of `COc1cc(C(=O)N[C@H]2CN(C(=O)CO)c3ccccc3N(CC(=O)N[C@H](C=O)CC(=O)O)C2=O)ccc1O` [Compound 733], the affinity in experiment [2] (Table 27), expressed as Ki, was 5 nM. Also, the IC50 in experiment [1] (Homo sapiens, Table 27) worked out at 1500 nM.

In turn, `CC(C)(C)OC(=O)C[C@@H](C=NOCCc1ccccc1)NC(=O)[C@@H]1CCCN2C(=O)CC[C@H](NC(=O)c3ccccc3)C(=O)N12` [Compound 307b, [3S(1S,9S)3-(9-Benzoylamino-6,10-dioxo-1,2,3,4,7,8,9,10-octahydro-6H-pyridazino-[1,2-a][1,2]diazapine-1-carboxamido)-amino]-4-oxobutanoic acid t-butyl ester, O-(2-(phenyl)ethyl)oxime] returned a Ki in experiment [2] (Table 5) of 165 nM. The 50% inhibitory concentration (IC50) in experiment [1] (* = values obtained upon reassay) amounted to 14000 nM.

As for `CC(=O)OCC(=O)N1C[C@H](NC(=O)c2ccccc2)C(=O)N(CC(=O)N[C@H]2CC(=O)OC2OCc2ccccc2)c2ccccc21` (mixture of isomers) [Compound 682, (3S)-2-Oxo-3-benzoylamino-5-(2-acetoxy)acetyl-N-[(2RS,3S)-benzyloxy-5-oxo-tetrahydrofuran-3-yl]-2,3,4,5-tetrahydro-1H-1,5-benzodiazepine-1-acetamide], the half-maximal inhibitory concentration (IC50) in experiment [1] (Homo sapiens, Table 17) was 1300 nM.

For `Cc1cc(C(=O)N[C@H]2CN(C(=O)CO)c3ccccc3N(CC(=O)N[C@H]3CC(=O)OC3OCc3ccccc3)C2=O)cc(C)c1O` (mixture of isomers) [Compound 690a, (3S)-2-Oxo-3-(3,5-dimethyl-4-hydroxybenzoyl)amino-5-hydroxyacetyl-N-[(2RS,3S)-benzyloxy-5-oxo-tetrahydrofuran-3-yl]-2,3,4,5-tetrahydro-1H-1,5-benzodiazepine-1-acetamide], the 50% inhibitory concentration (IC50) in experiment [1] (Homo sapiens, Table 17) stood at 1600 nM.

Take `COc1c(Cl)cc(C(=O)N[C@H]2CN(C(C)=O)c3ccccc3N(CC(=O)N[C@H](C=O)CC(=O)O)C2=O)cc1Cl` [Compound 669, (3S)-3-[(3S)-2-Oxo-3-(3,5-dichloro-4-methoxybenzoyl)amino-5-acetyl-2,3,4,5-tetrahydro-1H-1,5-benzodiazepine-1-acetylamino]-4-oxo-butyric acid]: in experiment [2] (Table 17), affinity was put at a Ki of 14 nM. The IC50 in experiment [1] (Homo sapiens, Table 17) turned out to be 10000 nM.

In experiment [2] (Table 27), `CCOC(=O)N1C[C@H](NC(=O)c2cc(C)c(O)c(C)c2)C(=O)N(CC(=O)N[C@H](C=O)CC(=O)O)c2ccccc21` [Compound 722] registered an inhibition constant Ki of 5 nM. The 50% inhibitory concentration (IC50) in experiment [1] (Homo sapiens, Table 27) stood at 5000 nM.

For `Cc1cc(C(=O)N[C@H]2CN(C(=O)CO)c3ccccc3N(CC(=O)NC3CC(=O)OC3OCc3ccccc3)C2=O)cc(C)c1O` (stereo partly drawn) [Compound 695c, (3S)-2RS-Oxo-3-(3,5-dimethyl-4-hydroxybenzoyl)amino-5-hydroxyacetyl-N-(2-benzyloxy-5-oxo-tetrahydrofuran-3-yl)-2,3,4,5-tetrahydro-1H-1,5-benzodiazepine-1-acetamide], the IC50 in experiment [1] (Table 17) turned out to be 2500 nM.

The compound `Cc1cc(C(=O)N[C@H]2CN(C(=O)COc3ccccc3)c3ccccc3N(CC(=O)N[C@H](C=O)CC(=O)O)C2=O)cc(C)c1O` [Compound 721] gave an inhibition constant Ki in experiment [2] (Table 27) of 1.3 nM. Besides, the concentration for half-maximal inhibition (IC50) in experiment [1] (Homo sapiens, Table 27) turned out to be 5000 nM.

As for `CN(C)c1cccc(C(=O)N[C@H]2CCC(=O)N3CCC[C@@H](C(=O)N[C@H]4CC(=O)OC4OCc4ccccc4)N3C2=O)c1` (mixture of isomers) [Compound 213g, [1S,9S (2RS,3S)]9-[(3-Dimethylaminobenzoyl)amino]-6,10-dioxo-1,2,3,4,7,8,9,10-octahydro-N-(2-Benzyloxy-5-oxotetrahydrofuran-3-yl)-6H-pyridazino[1,2-a][1,2]diazepine-1-carboxamide], in experiment [1] (Table 17), the IC50 amounted to 2200 nM.

`CC(=O)N1C[C@H](NC(=O)c2ccccc2)C(=O)N(CC(=O)N[C@H](C=O)CC(=O)O)c2c(C)cc(C)cc21` [Compound 605o, (3S)-3-[(3S)-2-Oxo-3-benzoylamino-5-acetyl-2,3,4,5-tetrahydro-7,9-dimethyl-1H-1,5-benzodiazepin-1-acetylamino]-4-oxo-butyric acid] showed an inhibition constant Ki in experiment [2] (Table 5) of 72 nM. In addition, the half-inhibitory concentration (IC50) in experiment [1] (setting [3]) amounted to 18000 nM.

As for `COCC(=O)N1C[C@H](NC(=O)c2cc(Cl)c(O)c(Cl)c2)C(=O)N(CC(=O)N[C@H]2CC(=O)OC2OCc2ccccc2)c2ccccc21` (mixture of isomers) [Compound 688a, (3S)-2-Oxo-3-(3,5-dichloro-4-hydroxybenzoyl)amino-5-methoxyacetyl-N-[(2RS,3S)-benzyloxy-5-oxo-tetrahydrofuran-3-yl]-2,3,4,5-tetrahydro-1H-1,5-benzodiazepine-1-acetamide], in experiment [1] (Homo sapiens, Table 17), the IC50 was determined as 3000 nM.

As for `COc1cccc(OC)c1C(=O)C(=O)N[C@H]1CN(C(=O)CO)c2ccccc2N(CC(=O)N[C@H]2CC(=O)OC2OCc2ccccc2)C1=O` (stereo partly drawn) [Compound 677, (3S)-2-Oxo-3-(1,6-dimethoxybenzoylformyl)amino-5-(2-hydroxy)acetyl-N-[(2RS,3S)-benzyloxy-5-oxo-tetrahydrofuran-3-yl]-2,3,4,5-tetrahydro-1H-1,5-benzodiazepine-1-acetamide], the half-inhibitory concentration (IC50) in experiment [1] (Homo sapiens, Table 17) is 610 nM.

On to `CCOC1OC(=O)C[C@@H]1NC(=O)[C@@H]1CCCN2C(=O)CC[C@H](NC(=O)c3nccc4ccccc34)C(=O)N12` (mixture of isomers) [Compound 550q, [1S,9S(2RS,3S)]N-(2-Ethoxy-5-oxotetrahydrofuran-3-yl)-6,10-dioxo-9-(isoquinolin-1-oylamino)-1,2,3,4,7,8,9,10-octahydro-6-H-pyridazino[1,2-a][1,2]diazepine-1-carboxamide], for which the IC50 in experiment [1] (Table 17) is 700 nM.

As to `CC(=O)N1C[C@H](NC(=O)c2cc(C)c(O)c(C)c2)C(=O)N(CC(=O)N[C@H]2CC(=O)OC2OCc2ccccc2)c2ccccc21` (mixture of isomers) [Compound 670, (3S)-2-Oxo-3-(3,5-dimethyl-4-hydroxybenzoyl)amino-5-acetyl-N-[(2RS,3S)-benzyloxy-5-oxo-tetrahydrofuran-3-yl]-2,3,4,5-tetrahydro-1H-1,5-benzodiazepine-1-acetamide], the IC50 in experiment [1] (Homo sapiens, Table 17) turned out to be 4500 nM.
